Source: publication PMC8608967, “KDS2010, a Newly Developed Reversible MAO-B Inhibitor, as an Effective Therapeutic Candidate for Parkinson’s Disease” (Neurotherapeutics, 2021)

Experiments:
[1] = tested on: A53T mutant α-synuclein-overexpressing PD model rats; assay: A53T mutant α-synuclein rat model: TH staining; format: in vivo; settings: 10 mg/kg/day for 15 days starting 3 weeks after virus injection
Text: Throughout the study, confounders were not controlled.

[2] = tested on: MPTP-induced PD mouse model; assay: MPTP mouse model: TH (DAB) and Nissl staining of SNpc and striatum; settings: MPTP mice; for TH optical density in the striatum / TH-positive cell number in the SNpc: vs MPTP plus vehicle
Experimental: Group allocation and outcome assessment, but not the conduct of experiments and data analysis, were performed in a blinded manner. Throughout the study, confounders were not controlled. An acclimation period of 7 days was allowed for animals to stabilize in a new environment before model induction. […] Treatment drugs were dissolved in 100 μL of water and total dose (in mg) was calculated according to individual body weight (in kg). […] An experiment was halted if body weight decreased by 20% or more after MPTP or 6-hydroxydopamine (6-OHDA) treatment.
The MPTP model was established using the acute regimen of four intraperitoneal (i.p.) injections of MPTP-HCl (M0896, Sigma Aldrich, 2 mg/mL in saline, 20 mg/kg for one injection) at 2-h intervals. All MPTP use and safety precautions were strictly followed as described [18].
Coronal sections for striatum and SNpc were prepared at 30-μm thickness and immunostained using a DAB staining kit (TL-060-QHD, Thermo, MA, USA). […] After washing in PBS 3 times, sections were incubated in Primary Antibody Amplifier Quanto (TA-060-QPB, Thermo) for 5 min, washed again in PBS, incubated in HRP Polymer Quanto for 1 h, washed 4 times in PBS, and dipped for 30 s in a 1:10 mixture of DAB + chromogen and DAB + substrate buffer (K3468, Dako, Denmark). Finally, sections were washed, immersed in mounting medium, and dried.
Every 6th section including the SN was stained with anti-TH and the number of TH-positive neurons counted under low magnification (× 10) from the rostral tip of the SNpc to the caudal end of the substantia nigra pars reticulate (SNpr). […] The total number of neurons per section was estimated according to the optical fractionator formula. The total number of SNpc neurons in a hemisphere was then obtained by multiplying the number counted using Stereo Investigator 11 by the slice interval (six).
Other 30-μm-thick coronal sections from the SNpc were Nissl stained to assess viable cell number. Briefly, slices were stained with 0.1% cresyl violet solution for 3 min, rinsed with distilled water, and placed in a chamber filled with 70% ethanol for 1 min. […] A series of bright field images were obtained using an Olympus microscope. The slices were classified according to AP coordinates and Nissl-positive neurons counted using the counting tool of ImageJ (NIH, MD, USA).

[3] = H2O2 scavenging capacity test (Amplex red/HRP); settings: 10 min incubation with H2O2 at RT
Experimental: To determine the H2O2 scavenging capacity of the test compound, H2O2 concentration was measured using the modified Amplex red/horseradish peroxidase (HRP) detection method as described previously. Briefly, a H2O2 solution was incubated with the test compound for 10 min at room temperature (RT), and then the reaction solution containing 20 mM Amplex red and 200 U/mL HRP was added. The absorbance was measured at 570 nm using a microplate reader. The H2O2 scavenging capacities were compared to a blank negative control and to the known H2O2 scavenger epigallocatechin gallate (EGCG) as a positive control.

[4] = target: T1, human recombinant MAO-B (hMAO-B) (Homo sapiens, UniProt P27338); assay: In vitro MAO-B enzyme assay (H2O2 release, absorbance 570 nm); format: biochemical
T1 construct: purchased Sigma Aldrich
T1 sequence (P27338 1-520): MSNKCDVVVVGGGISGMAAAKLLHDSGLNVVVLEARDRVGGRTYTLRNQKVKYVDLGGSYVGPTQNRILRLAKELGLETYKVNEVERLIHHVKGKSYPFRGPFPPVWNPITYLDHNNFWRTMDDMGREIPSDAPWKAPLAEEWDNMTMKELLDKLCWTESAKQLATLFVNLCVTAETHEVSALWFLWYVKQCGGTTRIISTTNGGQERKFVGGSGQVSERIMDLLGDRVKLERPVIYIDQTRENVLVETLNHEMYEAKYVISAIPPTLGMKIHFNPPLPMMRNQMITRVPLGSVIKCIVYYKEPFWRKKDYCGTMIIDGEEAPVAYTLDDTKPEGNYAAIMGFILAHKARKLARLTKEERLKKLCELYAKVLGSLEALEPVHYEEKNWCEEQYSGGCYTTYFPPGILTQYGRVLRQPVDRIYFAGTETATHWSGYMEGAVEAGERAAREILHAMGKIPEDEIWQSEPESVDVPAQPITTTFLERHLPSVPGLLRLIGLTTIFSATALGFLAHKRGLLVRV
Experimental: In brief, human recombinant MAO-A (hMAO-A) and MAO-B (hMAO-B) (Sigma Aldrich) were diluted in 50 mM phosphate buffer (~ 0.3 μg MAO-A protein/well or ~ 2.5 μg MAO-B protein/well), and the test compound was added in DMSO to a final concentration from 0.1 nM to 10 μM. The amount of hydrogen peroxide (H2O2) released after addition of enzyme substrate (p-tyramine for MAO-A or benzylamine for MAO-B) was quantified by measuring the absorbance increase at 570 nm on a microplate reader.

[5] = Toxicokinetics in 4-week repeated-dose study in cynomolgus monkeys (G218027); format: in vivo, cynomolgus monkey (Macaca fascicularis)
Experimental: (§1) In the repeated 4-week oral administration toxicity with 2-week recovery and toxicokinetic test (G218027), monkeys were assigned to 4 groups of 3 males and 3 females. Each group was orally administered KDS2010 at 0, 10, 20, or 40 mg/kg/day once a day for 4 weeks. Toxicity tests were conducted as described for study G217013. For toxicokinetic measurements, blood samples were collected pre-dose (time 0) and at 1, 2, 4, 6, 8, 10, and 24 h after oral administration on the first day (day 1) and the last day (week 4; day 28) of dosing.
A non-compartmental analysis module in Phoenix® WinNonlin® (version 6.4) (Certara Inc., CA, USA) was used to calculate pharmacokinetic (PK) parameters. Systemic exposure to KDS2010 was calculated by applying the linear trapezoidal rule to the area under the plasma concentration–time curve from time zero to the last quantifiable time point (AUClast), and the maximum observed peak plasma concentration (Cmax) and the time to reach Cmax (Tmax) were determined based on the observed data. The apparent terminal elimination half-life (t1/2) was calculated from the apparent terminal elimination rate constant using the formula t1/2 = 0.693/kel.

[6] = Oral toxicity studies in cynomolgus monkeys (N217019, G217013, G218027); format: in vivo, cynomolgus monkey (Macaca fascicularis); settings: cynomolgus monkey, in vivo; cynomolgus monkeys, both sexes, 4-week repeated oral dosing; read-out: No Observed Adverse Effect Level (NOAEL)
Experimental: (§2) All non-human primate studies were conducted in the Good Laboratory Practice (GLP)-level laboratory of the Korea Institute of Toxicology (KIT, Jeollabuk-do, Korea) and approved by the KIT Institutional Animal Care and Use Committee. Cynomolgus monkeys (Macaca fascicularis) were obtained from the Nafovanny captive-breeding primate facility (Dong Nai Province, Vietnam) and housed individually in stainless cages (543 W × 715L × 818H in mm) during acclimation, pre-treatment, and dosing periods. All animals were at least 24 months old. The environment of the animal room was automatically controlled according to the Standard Operating Procedures of KIT (temperature: 20–29°C, relative humidity: 30–70%, light cycle: 12 h at 300–700 Lux, ventilation: 10–20 times/h, air pressure: negative). Males and females were assigned to treatment groups in a stratified manner using the Pristima System based on most recent body weight. Clinical signs, including mortality, moribundity, general appearance, and behavioral changes, were recorded with date, time, and duration. Body weight was measured prior to the first KDS2010 dose. For oral administration, KDS2010 was dissolved in water. In total, 42 monkeys were administered KDS2010 and ultimately sacrificed for autopsy. The four studies conducted on cynomolgus monkeys are summarized in Table 1 and described in greater detail below.
(§3) In the single-dose escalation study (N118029), each male and female monkey was administered oral KDS2010 at increasing doses of 25, 50, and 100 mg/kg/day once a week. Mortality and general symptoms were observed during the trial period. Body weight was also measured. Blood was collected for hematology, coagulation, and clinical chemistry tests pre-dose (0) and 8, 15, and 22 days post-dose. After administration of 100 mg/kg/day on day 22, an autopsy was performed to observe individual macroscopic findings.
(§4) In the repeated 2-week oral administration toxicity study (G217013) for 4-week dose range finding (DRF), monkeys were assigned to 4 groups of one male and one female. Each group was orally administered KDS2010 at 0, 25, 50, or 100 mg/kg/day once a day for 2 weeks. During the test period, general symptoms were monitored, weight and feed intake measured, and ophthalmological tests performed. Clinical pathological tests (hematology, coagulation, blood biochemistry, and urine tests) were also conducted. All animals were autopsied, during which individual macroscopic findings were recorded, organ weights measured, and samples obtained for histopathology.
as §1

cynomolgus monkeys = assay: as above; format: in vivo, cynomolgus monkey (Macaca fascicularis)
Experimental: as §2, §3, §4, §1

[7] = Pharmacokinetic study in cynomolgus monkeys (N118029); format: in vivo, cynomolgus monkey (Macaca fascicularis); settings: male, cynomolgus monkey, plasma, po
Experimental: All animals were at least 24 months old. […] Males and females were assigned to treatment groups in a stratified manner using the Pristima System based on most recent body weight. Clinical signs, including mortality, moribundity, general appearance, and behavioral changes, were recorded with date, time, and duration. Body weight was measured prior to the first KDS2010 dose. For oral administration, KDS2010 was dissolved in water. In total, 42 monkeys were administered KDS2010 and ultimately sacrificed for autopsy.
In the pharmacokinetic study (N118029), six male monkeys were assigned to 2 groups receiving either 10 or 30 mg/kg oral KDS2010. […] Blood samples were mixed gently, stored in a wet-ice cryo-rack, and centrifuged (approximately 13,200 rpm, 5 min, 4°C) to obtain plasma. The separated plasma was aliquoted into polypropylene tubes and stored frozen until analysis.

## C[C@H](NCc1ccc(-c2ccc(C(F)(F)F)cc2)cc1)C(N)=O [Compound 18j]
[1]
  number of remaining TH-positive neurons in the injected SNpc: increased
  striatal TH loss: significantly reversed
[2]; post-treatment
  MPTP-induced reduction in Nissl-positive neurons in SNpc: but not post-treatment
  TH optical density in the striatum: significantly increased
  TH-positive cell number in the SNpc: significantly increased
[2]; pre-treatment
  MPTP-induced reduction in Nissl-positive neurons in SNpc: partially prevented
  TH optical density in the striatum: significantly increased
  TH-positive cell number in the SNpc: significantly increased
[3]
  H2O2 scavenging effect: did not show any H2O2 scavenging effect
[4]
  higher MAO-B inhibitory effect of (S)-stereoisomer than (R)-isomer (19j): eightfold
[5]; both sexes, cynomolgus monkey, plasma, po, cynomolgus monkeys, 10, 20 or 40 mg/kg/day p.o.
  Tmax: 4.72 ± 1.93 h
[5]; cynomolgus monkeys, 10, 20, 40 mg/kg/day p.o.
  dose-dependent increase of AUClast: slightly less than proportional
[6]
  NOAEL at 4 weeks: 40 mg/kg/day
Cynomolgus monkeys; cynomolgus monkeys, 0, 25, 50, 100 mg/kg/day p.o. for 2 weeks
  maximum dose determined in 2-week DRF study (G217013): 50 mg/kg/day
Cynomolgus monkeys; cynomolgus monkeys, 10, 20, 40 mg/kg/day p.o. for 4 weeks
  adverse effects in toxicity examinations: no adverse effects were observed
Cynomolgus monkeys; cynomolgus monkeys, 25, 50 and 100 mg/kg p.o.
  findings in single-dose escalation toxicity study (N217019): no general symptoms, clinical pathological, or gross organ pathology
Cynomolgus monkeys; cynomolgus monkeys, male and female, 10, 20, 40 mg/kg/day p.o. for 4 weeks
  changes in body weight: no significant changes
[7]; 10 mg/kg
  AUC: 30600 ± 422 ng·h/mL
  Cmax: 2230 ± 143 ng/mL
[7]; 30 mg/kg
  AUC: 80800 ± 5370 ng·h/mL
  Cmax: 4850 ± 568 ng/mL
